Source: ChEMBL document CHEMBL5346964, “Discovery of LNP1892: A Precision Calcimimetic for the Treatment of Secondary Hyperparathyroidism” (J Med Chem, 2023)

Tests used:
CYP2D6 = CYP2D6 (Homo sapiens, UniProt P10635); assay: Inhibition of CYP2D6 in human liver microsomes at 10 uM preincubated for 5 mins followed by NADPH addition by LC-MS/MS analysis relative to control; format: ADME, Microsome
[1] = Microsomal stability in rat liver microsomes assessed as parent compound remaining at 1 uM measured upto 30 mins in presence of NADPH by LC-MS/MS analysis; format: ADME, Microsome; settings: read-out: Stability
[2] = AUClast in Sprague-Dawley rat at 1 mg/kg, iv measured upto 24 hrs by LC-MS/MS analysis; format: ADME, organism-based; set-up: dose 1 mg/kg, time < 24 hrs, route iv; settings: in vivo
[3] = Half life in Sprague-Dawley rat at 1 mg/kg, iv measured upto 24 hrs by LC-MS/MS analysis; format: ADME, organism-based; settings: in vivo
[4] = Clearance in Sprague-Dawley rat at 1 mg/kg, iv measured upto 24 hrs by LC-MS/MS analysis; format: ADME, organism-based; settings: in vivo
[5] = Volume of distribution at steady state in Sprague-Dawley rat at 1 mg/kg, iv measured upto 24 hrs by LC-MS/MS analysis; format: ADME, organism-based; settings: in vivo, read-out: Vdss
[6] = Tmax in Sprague-Dawley rat at 10 mg/kg, po administered as suspension measured upto 24 hrs by LC-MS/MS analysis; format: ADME, organism-based; settings: in vivo
[7] = Tmax in Sprague-Dawley rat at 10 mg/kg, po administered as solution measured upto 24 hrs by LC-MS/MS analysis; format: ADME, organism-based; settings: in vivo
[8] = Clearance in Sprague-Dawley rat at 10 mg/kg, po administered as solution measured upto 24 hrs by LC-MS/MS analysis; format: ADME, organism-based; settings: in vivo
[9] = Effect on parathyroid hormone in overnight fasted Sprague-Dawley rat assessed as reduction in plasma PTH level at 3 mg/kg, po measured after 4 hrs of post treatment by sandwich ELISA analysis; format: functional; set-up: scale not given: the % may be the effect or the level left
[10] = Effect on parathyroid hormone in overnight fasted Sprague-Dawley rat assessed as reduction in plasma PTH level at 10 mg/kg, po measured after 6 hrs of post treatment by sandwich ELISA analysis (reference value: 33%); format: functional; set-up: scale not given: the % may be the effect or the level left
Rattus norvegicus [11] = assay: Acute effect on parathyroid hormone in overnight fasted adenine diet-induced chronic kidney disease Wistar rat model assessed as reduction in plasma PTH level at 3 mg/kg, po measured after 1 hrs of post treatment by sandwich ELISA analysis; format: functional; set-up: scale not given: the % may be the effect or the level left
Rattus norvegicus [12] = assay: Acute effect on parathyroid hormone in overnight fasted adenine diet-induced chronic kidney disease Wistar rat model assessed as reduction in plasma PTH level at 10 mg/kg, po measured after 1 hrs of post treatment by sandwich ELISA analysis; format: functional; set-up: scale not given: the % may be the effect or the level left
Rattus norvegicus [13] = assay: Acute effect on parathyroid hormone in overnight fasted adenine diet-induced chronic kidney disease Wistar rat model assessed as reduction in plasma PTH level at 1 mg/kg, po measured after 2 hrs of post treatment by sandwich ELISA analysis; format: functional; set-up: scale not given: the % may be the effect or the level left
Rattus norvegicus [14] = assay: Acute effect on parathyroid hormone in overnight fasted adenine diet-induced chronic kidney disease Wistar rat model assessed as reduction in plasma PTH level at 10 mg/kg, po measured after 4 hrs of post treatment by sandwich ELISA analysis; format: functional; set-up: scale not given: the % may be the effect or the level left
[15] = Tmax in Sprague-Dawley rat at 10 mg/kg; format: ADME, organism-based; settings: in vivo
[16] = Cmax in Sprague-Dawley rat at 10 mg/kg; format: ADME, organism-based; set-up: dose 10 mg/kg; settings: in vivo
[17] = Cmax in Sprague-Dawley rat at 30 mg/kg; format: ADME, organism-based; set-up: dose 30 mg/kg; settings: in vivo
[18] = Stability in human plasma measured up to 4 hrs by LC-MS/MS method; format: ADME, cell-free; settings: read-out: Stability
[19] = Protein binding in mouse plasma incubated for 16 hrs under shaking condition by rapid equilibrium dialysis based LC-MS/MS method; format: ADME, cell-free; settings: read-out: PPB
CYP2E1 = CYP2E1 (Homo sapiens, UniProt P05181); assay: Inhibition of CYP2E1 in human liver microsomes at 10 uM preincubated for 5 mins followed by NADPH addition by LC-MS/MS analysis relative to control; format: ADME, Microsome
[20] = Apparent permeability across basolateral to apical side in human Caco-2 cells at 5 uM measured after 30 to 120 mins by LC-MS/MS analysis; format: ADME, cell-based; settings: time 30-120 min
[21] = Kinetic solubility of compound upto 500 uM at pH 4 measured after 16 hrs under shaking condition by UV-visible method; format: physicochemical; settings: buffer, read-out: Kinetic_solubility
[22] = Chemical stability of the compound at pH 4 measured after 0.5 to 4 hrs; format: physicochemical; settings: buffer, time 0.5-4 hrs
[23] = Chemical stability of the compound in 0.1N HCL measured after 0.5 to 4 hrs; format: physicochemical; settings: buffer; time 0.5-4 hrs
[24] = Oral bioavailability in cynomolgus monkey at 5 mg/kg measured upto 24 hrs by LC/MS-MS analysis; format: ADME, organism-based, Macaca fascicularis; settings: in vivo
[25] = Plasma clearance in Beagle dog at 1 mg/kg, iv measured upto 24 hrs by LC/MS-MS analysis; format: ADME, organism-based, Canis lupus familiaris
[26] = Plasma clearance in cynomolgus monkey at 1 mg/kg, iv measured upto 24 hrs by LC/MS-MS analysis; format: ADME, organism-based, Macaca fascicularis
[27] = Tmax in Beagle dog at 5 mg/kg, po measured upto 24 hrs by LC/MS-MS analysis; format: ADME, organism-based, Canis lupus familiaris; settings: in vivo
[28] = Drug excretion in BALB/c mouse assessed as drug recovery in urine at 1 mg/kg, iv; format: ADME, organism-based; settings: read-out: Drug recovery
[29] = Drug excretion in rat assessed as drug recovery in urine at 1 mg/kg, iv; format: ADME, organism-based; settings: read-out: Drug recovery
[30] = Ratio of drug concentration in brain to plasma in Sprague-Dawley rat at 10 mg/kg, po measured upto 24 hrs by LC-MS/MS analysis; format: ADME, organism-based; settings: read-out: BPR
[31] = Cmax in rat at 50 mg/kg per day, po via gavage administered for 2 weeks; format: ADME, organism-based; set-up: dose 50 mg/kg, time 2 weeks, route po; settings: in vivo
[32] = Cmax in rat at 25 mg/kg per day, po via gavage administered for 13 weeks; format: ADME, organism-based; set-up: time 13 weeks, dose 25 mg/kg, route po; settings: in vivo
[33] = target: T1, 5-hydroxytryptamine receptor 1A (Homo sapiens) (UniProt P08908); assay: Inhibition of human recombinant 5-HT1A receptor at 10 uM relative to control
T1 sequence (whole entry): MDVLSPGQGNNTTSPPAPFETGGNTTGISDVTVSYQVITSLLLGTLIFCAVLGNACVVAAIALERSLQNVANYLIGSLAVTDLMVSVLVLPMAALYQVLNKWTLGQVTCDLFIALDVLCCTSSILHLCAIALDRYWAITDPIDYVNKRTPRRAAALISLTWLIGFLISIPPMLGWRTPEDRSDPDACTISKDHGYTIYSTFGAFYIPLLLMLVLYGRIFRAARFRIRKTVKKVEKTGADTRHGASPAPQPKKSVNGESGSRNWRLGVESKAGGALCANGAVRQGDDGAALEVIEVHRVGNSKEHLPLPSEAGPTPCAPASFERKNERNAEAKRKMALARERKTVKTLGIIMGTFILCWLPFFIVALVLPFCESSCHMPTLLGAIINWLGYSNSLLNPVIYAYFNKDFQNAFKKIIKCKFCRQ

[34] = target: Mu-type opioid receptor (Homo sapiens) (UniProt P35372); assay: Inhibition of human recombinant MOP receptor at 10 uM relative to control
[35] = target: Delta-type opioid receptor (Homo sapiens) (UniProt P41143); assay: Inhibition of human recombinant DOP receptor at 10 uM relative to control
Sequence of Delta-type opioid receptor (Homo sapiens) (P41143 whole entry): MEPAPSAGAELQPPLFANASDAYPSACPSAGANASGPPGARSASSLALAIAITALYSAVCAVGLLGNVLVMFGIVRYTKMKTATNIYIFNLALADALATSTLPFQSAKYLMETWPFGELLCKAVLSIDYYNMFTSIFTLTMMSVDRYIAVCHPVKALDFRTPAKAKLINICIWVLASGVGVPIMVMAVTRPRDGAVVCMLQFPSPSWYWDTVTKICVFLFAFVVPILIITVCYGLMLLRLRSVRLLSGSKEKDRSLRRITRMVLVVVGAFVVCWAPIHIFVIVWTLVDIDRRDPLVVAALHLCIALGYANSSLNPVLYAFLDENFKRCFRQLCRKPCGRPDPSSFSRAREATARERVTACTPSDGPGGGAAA

Sequence of CYP2D6 (P10635 whole entry): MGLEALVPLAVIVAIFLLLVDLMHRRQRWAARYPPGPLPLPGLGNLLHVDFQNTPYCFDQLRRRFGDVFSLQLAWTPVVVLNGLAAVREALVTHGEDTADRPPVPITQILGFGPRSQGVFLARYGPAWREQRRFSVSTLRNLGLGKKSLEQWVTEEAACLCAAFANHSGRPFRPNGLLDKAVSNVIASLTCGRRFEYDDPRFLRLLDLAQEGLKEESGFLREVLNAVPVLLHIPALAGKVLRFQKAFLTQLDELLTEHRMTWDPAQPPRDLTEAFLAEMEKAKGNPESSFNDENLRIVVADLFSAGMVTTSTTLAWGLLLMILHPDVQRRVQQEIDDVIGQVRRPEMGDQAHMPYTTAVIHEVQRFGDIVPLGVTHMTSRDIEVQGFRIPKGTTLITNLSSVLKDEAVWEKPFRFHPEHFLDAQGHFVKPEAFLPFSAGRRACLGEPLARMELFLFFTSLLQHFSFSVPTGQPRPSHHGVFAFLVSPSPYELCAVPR
Sequence of Mu-type opioid receptor (Homo sapiens) (P35372 whole entry): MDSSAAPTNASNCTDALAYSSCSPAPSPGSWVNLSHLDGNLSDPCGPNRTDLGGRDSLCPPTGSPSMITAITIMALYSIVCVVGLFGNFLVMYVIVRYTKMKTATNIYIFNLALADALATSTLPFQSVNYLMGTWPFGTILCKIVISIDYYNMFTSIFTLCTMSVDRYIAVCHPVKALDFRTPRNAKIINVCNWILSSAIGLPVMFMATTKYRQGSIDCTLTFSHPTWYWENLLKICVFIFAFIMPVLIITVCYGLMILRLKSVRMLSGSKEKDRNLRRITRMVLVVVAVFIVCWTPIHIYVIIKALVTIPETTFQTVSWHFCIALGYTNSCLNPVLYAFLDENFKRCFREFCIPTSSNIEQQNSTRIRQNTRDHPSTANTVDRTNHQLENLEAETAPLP
Sequence of CYP2E1 (P05181 whole entry): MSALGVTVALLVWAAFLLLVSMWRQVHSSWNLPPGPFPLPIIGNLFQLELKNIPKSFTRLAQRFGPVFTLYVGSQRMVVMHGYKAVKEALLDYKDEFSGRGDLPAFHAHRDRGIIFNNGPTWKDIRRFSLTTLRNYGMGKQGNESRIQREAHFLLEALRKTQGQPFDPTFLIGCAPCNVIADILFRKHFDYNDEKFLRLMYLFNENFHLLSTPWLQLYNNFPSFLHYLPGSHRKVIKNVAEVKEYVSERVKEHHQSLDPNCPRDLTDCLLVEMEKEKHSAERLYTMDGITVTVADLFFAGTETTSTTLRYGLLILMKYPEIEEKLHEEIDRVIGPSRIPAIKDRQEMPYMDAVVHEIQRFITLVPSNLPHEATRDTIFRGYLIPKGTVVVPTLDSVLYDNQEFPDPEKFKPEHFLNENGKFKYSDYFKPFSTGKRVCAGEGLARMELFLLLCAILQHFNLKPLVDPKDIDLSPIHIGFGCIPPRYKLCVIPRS

Compound: Cc1ccc([C@@H]2C[C@H](CN[C@H](C)c3cccc4ccccc34)Oc3ccccc32)cc1C(=O)O.Cl
- inhibition at 10 µM (CYP2D6): 0%
- remaining at 0.5 h, 1 µM [1]: 77%
- AUC(0-t) at 24 h [2]: 7 µM·h
- half-life [3]: 4 h
- clearance [4]: 4 mL/min/kg
- Vd [5]: 1 L/kg
- Tmax [6]: 1 h
- Tmax [7]: 0.6 h
- CL/F [8]: 6 mL/min/kg
- Activity [9]: 74%
- Activity [10]: 45%
- Activity (Rattus norvegicus [11]): 96%
- Activity (Rattus norvegicus [12]): 96%
- Activity (Rattus norvegicus [13]): 95%
- Activity (Rattus norvegicus [14]): 97%
- Tmax [15]: 1 h
- Cmax [16]: 4 µM
- Cmax [17]: 24 µM
- remaining at 4 h [18]: > 80%
- fraction unbound at 16 h [19]: < 0.01
- inhibition at 10 µM (CYP2E1): 0%
- Papp B→A at 5 µM [20]: 6.3 ×10⁻⁶ cm/s
- solubility kinetic at 16 h, 500 µM [21]: > 300 µM
- Stability [22]: Stable
- Stability [23]: Stable
- bioavailability [24]: 100%
- clearance [25]: 2 mL/min/kg
- clearance [26]: 151 mL/min/kg
- Tmax [27]: 0.7 h
- dose excreted [28]: < 1%
- dose excreted [29]: < 1%
- Kp at 24 h [30]: 0.2
- Cmax [31]: 7170 ng/mL
- Cmax [32]: 9660 ng/mL
- inhibition [33]: > 50%
- inhibition [34]: > 50%
- inhibition [35]: > 50%
